The structures appear in SMILES notation. Values joined by “and” are separate entries in the source; they are usually repeats but may differ in a detail not shown here. Equal entries are not always repeated. Inconclusive results are not listed.

This assay relates to BDF1 mice, s.c. Lewis lung carcinoma, T/C %. Nature of the assay: NCI In Vivo Anticancer Drug Screen. Data for tumor model Lewis Lung Carcinoma (subcutaneous) in B6D2F1 (BDF1) mice. As for the experimental part:
The antitumor activity of compounds was measured in mice bearing transplantable tumors. Survival or tumor size were measured and the results are expressed as the measurement made in the treated group (T) divided by the measurement made in the vehicle treated control group (C). The tumor model used in this assay is Lewis Lung Carcinoma (subcutaneous) in B6D2F1 (BDF1) mice

The mark [1] stands for this setting: endpoint: median survival time, dose: 37.5 mg/kg/injection, schedule: Q01DX009 (ip), vehicle: Klucel (hydroxypropylcellulose) (HPC), higher = longer survival.
Where [2] appears, read: endpoint: median survival time, dose: 75.0 mg/kg/injection, schedule: Q01DX009 (ip), vehicle: Klucel (hydroxypropylcellulose) (HPC), higher = longer survival.
Where [3] appears, read: endpoint: median survival time, dose: 12.5 mg/kg/injection, schedule: Q01DX009 (ip), vehicle: Klucel (hydroxypropylcellulose) (HPC), higher = longer survival.
[4] abbreviates: endpoint: median survival time, dose: 25.0 mg/kg/injection, schedule: Q01DX009 (ip), vehicle: Klucel (hydroxypropylcellulose) (HPC), higher = longer survival.

Regarding `Cc1cc(C)nc(NS(=O)(=O)c2ccc(N=Nc3nc4[nH]c(N)nc(=S)c4[nH]3)cc2)n1`, the T/C by setting is: (endpoint: median survival time, dose: 0.78 mg/kg/injection, schedule: Q01DX009 (ip), vehicle: Klucel (hydroxypropylcellulose) (HPC), higher = longer survival) 96 % of control; (endpoint: median survival time, dose: 1.56 mg/kg/injection, schedule: Q01DX009 (ip), vehicle: Klucel (hydroxypropylcellulose) (HPC), higher = longer survival) 108 % of control.
As for `Cc1ccc(C(=O)/C=C/c2ccccc2O)cc1`, the T/C is 105 % of control under setting [1]; 111 % of control under setting [2]; 108 % of control (endpoint: median survival time, dose: 150.0 mg/kg/injection, schedule: Q01DX009 (ip), vehicle: Klucel (hydroxypropylcellulose) (HPC), higher = longer survival); 89 % of control (endpoint: median survival time, dose: 300.0 mg/kg/injection, schedule: Q01DX009 (ip), vehicle: Klucel (hydroxypropylcellulose) (HPC), higher = longer survival).
Regarding `O=C1CC(c2ccc(OCN(CCCl)CCCl)cc2)CC(=O)C1CN(CCCl)CCCl` (stereo unspecified), the T/C (endpoint: median survival time, dose: 0.5 mg/kg/injection, schedule: Q01DX009 (ip), vehicle: Klucel (hydroxypropylcellulose) (HPC), higher = longer survival) was 101 % of control; the T/C (endpoint: median survival time, dose: 1.0 mg/kg/injection, schedule: Q01DX009 (ip), vehicle: Klucel (hydroxypropylcellulose) (HPC), higher = longer survival) is 123 % of control; the T/C (endpoint: median survival time, dose: 2.0 mg/kg/injection, schedule: Q01DX009 (ip), vehicle: Klucel (hydroxypropylcellulose) (HPC), higher = longer survival) was 116 % of control; the T/C (endpoint: median survival time, dose: 4.0 mg/kg/injection, schedule: Q01DX009 (ip), vehicle: Klucel (hydroxypropylcellulose) (HPC), higher = longer survival) was 123 % of control; the T/C (endpoint: median survival time, dose: 8.0 mg/kg/injection, schedule: Q01DX009 (ip), vehicle: Klucel (hydroxypropylcellulose) (HPC), higher = longer survival) was 115 % of control.
Regarding `CCCNC1=C(N2CC2)C(=O)C(NCCC)=C(N2CC2)C1=O`, the T/C reads like this: (endpoint: median survival time, dose: 2.5 mg/kg/injection, schedule: Q01DX009 (ip), vehicle: saline, higher = longer survival) 102 % of control; (endpoint: median survival time, dose: 5.0 mg/kg/injection, schedule: Q01DX009 (ip), vehicle: saline, higher = longer survival) 112 % of control; (endpoint: median survival time, dose: 10.0 mg/kg/injection, schedule: Q01DX009 (ip), vehicle: saline, higher = longer survival) 114 % of control.
In the case of `Nc1nc2c(ncn2C2OC(CO)C(O)C2N)c(=O)[nH]1` (stereo unspecified), the T/C reads like this: (endpoint: median survival time, dose: 1.56 mg/kg/injection, schedule: Q01DX009 (ip), vehicle: saline, higher = longer survival) 95 % of control; (endpoint: median survival time, dose: 3.12 mg/kg/injection, schedule: Q01DX009 (ip), vehicle: Klucel (hydroxypropylcellulose) (HPC), higher = longer survival) 99 % of control; (endpoint: median survival time, dose: 3.13 mg/kg/injection, schedule: Q01DX009 (ip), vehicle: saline, higher = longer survival) 91 % of control and 104 % of control; (endpoint: median survival time, dose: 6.25 mg/kg/injection, schedule: Q01DX009 (ip), vehicle: Klucel (hydroxypropylcellulose) (HPC), higher = longer survival) 102 % of control; (endpoint: median survival time, dose: 6.25 mg/kg/injection, schedule: Q01DX009 (ip), vehicle: saline, higher = longer survival) 97 % of control; under setting [3], 102 % of control. Moreover, the T/C (endpoint: median survival time, dose: 12.5 mg/kg/injection, schedule: Q01DX009 (ip), vehicle: saline with Tween-80, higher = longer survival) is 95 % of control; the T/C (endpoint: median survival time, dose: 12.5 mg/kg/injection, schedule: Q01DX009 (ip), vehicle: saline, higher = longer survival) was 98 % of control; the T/C under setting [4] was 90 % of control; the T/C (endpoint: median survival time, dose: 25.0 mg/kg/injection, schedule: Q01DX009 (ip), vehicle: saline with Tween-80, higher = longer survival) was 118 % of control; the T/C (endpoint: median survival time, dose: 25.0 mg/kg/injection, schedule: Q01DX009 (ip), vehicle: saline, higher = longer survival) is 94 % of control; the T/C (endpoint: median survival time, dose: 50.0 mg/kg/injection, schedule: Q01DX009 (ip), vehicle: saline with Tween-80, higher = longer survival) was 110 % of control.
For the molecule `CC(=O)[C@@]1(O)CC[C@H]2[C@@H]3C[C@H](C)C4=CC(=O)C=C[C@]4(C)[C@@]3(F)[C@@H](O)C[C@@]21C`, the T/C is 28 % of control (endpoint: mean tumor weight, dose: 25.0 mg/kg/injection, schedule: Q01DX011 (sc), vehicle: steriod suspending solution, higher = larger tumour) and 18 % of control (endpoint: mean tumor weight, dose: 50.0 mg/kg/injection, schedule: Q01DX011 (sc), vehicle: steriod suspending solution, higher = larger tumour).
With `CCCCCC/C=C/C#CCCCCCCCC(=O)O`, the T/C is 97 % of control (endpoint: median survival time, dose: 18.75 mg/kg/injection, schedule: Q01DX009 (ip), vehicle: Klucel (hydroxypropylcellulose) (HPC), higher = longer survival); 90 % of control and 91 % of control under setting [1]; 102 % of control and 111 % of control under setting [2].
As to `CCC(c1ccc(O)cc1)C(CC)c1ccc(OC)cc1` (stereo unspecified), the T/C by setting is: (endpoint: mean tumor weight, dose: 4.0 mg/kg/injection, schedule: Q01DX011 (sc), vehicle: steriod suspending solution, higher = larger tumour) 60 % of control; (endpoint: mean tumor weight, dose: 8.0 mg/kg/injection, schedule: Q01DX011 (sc), vehicle: steriod suspending solution, higher = larger tumour) 36 % of control; (endpoint: mean tumor weight, dose: 16.0 mg/kg/injection, schedule: Q01DX011 (sc), vehicle: steriod suspending solution, higher = larger tumour) 33 % of control; (endpoint: mean tumor weight, dose: 31.3 mg/kg/injection, schedule: Q01DX011 (ip), vehicle: saline, higher = larger tumour) 23 % of control; (endpoint: mean tumor weight, dose: 32.0 mg/kg/injection, schedule: Q01DX011 (sc), vehicle: steriod suspending solution, higher = larger tumour) 16 % of control; (endpoint: mean tumor weight, dose: 62.5 mg/kg/injection, schedule: Q01DX011 (ip), vehicle: saline, higher = larger tumour) 21 % of control. The T/C is, setting by setting: (endpoint: mean tumor weight, dose: 125.0 mg/kg/injection, schedule: Q01DX011 (ip), vehicle: saline, higher = larger tumour) 16 % of control; (endpoint: mean tumor weight, dose: 250.0 mg/kg/injection, schedule: Q01DX011 (ip), vehicle: saline, higher = larger tumour) 13 % of control.
`COc1cc2c(cc1Oc1c(Oc3c(O)c(OC)cc4c3C(CC(C)C)N(C)CC4)c(OC)cc3c1C(CC(C)C)N(C)CC3)C(CC(C)C)N(C)CC2` (stereo unspecified): the T/C was 92 % of control under setting [3]; 98 % of control under setting [4]; 88 % of control (endpoint: median survival time, dose: 50.0 mg/kg/injection, schedule: Q01DX009 (ip), vehicle: Klucel (hydroxypropylcellulose) (HPC), higher = longer survival).
`CC1CCCC(NC(=O)N(CCCl)N=O)C1` (stereo unspecified): the T/C was 110 % of control (endpoint: median survival time, dose: 20.0 mg/kg/injection, schedule: Q01DX001 (ip), vehicle: gum acacia, higher = longer survival); 110 % of control (endpoint: median survival time, dose: 30.0 mg/kg/injection, schedule: Q01DX001 (ip), vehicle: gum acacia, higher = longer survival); 92 % of control (endpoint: median survival time, dose: 43.0 mg/kg/injection, schedule: Q01DX001 (ip), vehicle: gum acacia, higher = longer survival); 90 % of control (endpoint: median survival time, dose: 64.0 mg/kg/injection, schedule: Q01DX001 (ip), vehicle: gum acacia, higher = longer survival); 155 % of control (endpoint: median survival time, dose: 96.0 mg/kg/injection, schedule: Q01DX001 (ip), vehicle: gum acacia, higher = longer survival).
`Cc1cc(C)c(NC(=O)N(CCCl)N=O)cc1C`: the T/C is, setting by setting: (endpoint: mean tumor weight, dose: 25.0 mg/kg/injection, schedule: Q01DX001 (ip), vehicle: carboxymethylcellulose (CMC), higher = larger tumour) 80 % of control; (endpoint: mean tumor weight, dose: 50.0 mg/kg/injection, schedule: Q01DX001 (ip), vehicle: carboxymethylcellulose (CMC), higher = larger tumour) 82 % of control; (endpoint: median survival time, dose: 12.5 mg/kg/injection, schedule: Q01DX009 (ip), vehicle: other, higher = longer survival) 98 % of control; (endpoint: median survival time, dose: 25.0 mg/kg/injection, schedule: Q01DX009 (ip), vehicle: other, higher = longer survival) 98 % of control; (endpoint: median survival time, dose: 50.0 mg/kg/injection, schedule: Q01DX009 (ip), vehicle: other, higher = longer survival) 87 % of control.
In the case of `O=CNCCNC=O`, the T/C by setting is: (endpoint: mean tumor weight, dose: 148.0 mg/kg/injection, schedule: Q01DX011 (ip), vehicle: saline, higher = larger tumour) 96 % of control; (endpoint: mean tumor weight, dose: 333.0 mg/kg/injection, schedule: Q01DX011 (ip), vehicle: saline, higher = larger tumour) 98 % of control; (endpoint: mean tumor weight, dose: 500.0 mg/kg/injection, schedule: Q01DX011 (ip), vehicle: saline, higher = larger tumour) 115 % of control.
`CN(C)CCOC(=O)COc1ccc(Cl)cc1`: the T/C by setting is: (endpoint: median survival time, dose: 200.0 mg/kg/injection, schedule: Q01DX005 (ip), vehicle: saline, higher = longer survival) 103 % of control and 116 % of control; (endpoint: median survival time, dose: 300.0 mg/kg/injection, schedule: Q01DX005 (ip), vehicle: saline, higher = longer survival) 119 % of control.
Take `C=C1C(=O)OC2CC(C)C3C4OC4C(O)C3(C)C(O)C12` (stereo unspecified): the T/C (endpoint: median survival time, dose: 9.38 mg/kg/injection, schedule: Q01DX009 (ip), vehicle: saline with Tween-80, higher = longer survival) was 99 % of control; the T/C (endpoint: median survival time, dose: 18.75 mg/kg/injection, schedule: Q01DX009 (ip), vehicle: saline with Tween-80, higher = longer survival) is 96 % of control; the T/C (endpoint: median survival time, dose: 37.5 mg/kg/injection, schedule: Q01DX009 (ip), vehicle: saline with Tween-80, higher = longer survival) is 101 % of control.
`c1ccc2ncccc2c1`: the T/C is 81 % of control (endpoint: mean tumor weight, dose: 25.0 mg/kg/injection, schedule: Q01DX011 (ip), vehicle: saline, higher = larger tumour) and 49 % of control (endpoint: mean tumor weight, dose: 50.0 mg/kg/injection, schedule: Q01DX011 (ip), vehicle: saline, higher = larger tumour).
With `O=C1C=CC2(CCC23C=CC(=O)O3)O1` (stereo unspecified), the T/C (endpoint: mean tumor weight, dose: 13.0 mg/kg/injection, schedule: Q01DX011 (ip), vehicle: saline, higher = larger tumour) is 102 % of control; the T/C (endpoint: mean tumor weight, dose: 30.0 mg/kg/injection, schedule: Q01DX011 (ip), vehicle: saline, higher = larger tumour) was 85 % of control; the T/C (endpoint: mean tumor weight, dose: 45.0 mg/kg/injection, schedule: Q01DX011 (ip), vehicle: saline, higher = larger tumour) was 80 % of control and 83 % of control; the T/C (endpoint: mean tumor weight, dose: 65.0 mg/kg/injection, schedule: Q01DX011 (ip), vehicle: saline, higher = larger tumour) is 66 % of control.

These data come from PubChem BioAssay AID270 (DTP/NCI, 2004).
